From PMC10410440, “Preclinical PK investigation of a novel IDO1/TDO dual inhibitor—SHR9146 in mouse plasma and tissues by LC-MS/MS” (Frontiers in Oncology, 2023)
Entries after “also recorded” stand apart in the source; their conditions may differ.

Assay: Stability of SHR9146 in mouse plasma, whole blood and post-preparative samples
Assay type: in vitro ADME
Procedure: The plasma samples were examined under different conditions, including at room temperature for 6 h, three freeze–thaw cycles, and at −20°C and −70°C for 50 days. Post-preparative plasma samples were studied after being placed at room temperature for 24 h. […] Samples were considered to be stable if the deviations between measured concentration and the spiked values were within ±15%.

[1] = mouse plasma, after three freeze–thaw cycles, QC spiked 0.15 μg/mL, n=3
[2] = mouse plasma, after three freeze–thaw cycles, QC spiked 40 μg/mL, n=3
[3] = mouse plasma, at -70 °C for 50 days, QC spiked 0.15 μg/mL, n=3
[4] = mouse plasma, at -70 °C for 50 days, QC spiked 40 μg/mL, n=3
[5] = mouse plasma, at room temperature for 6 h, QC spiked 0.15 μg/mL, n=3
[6] = mouse plasma, at room temperature for 6 h, QC spiked 40 μg/mL, n=3
[7] = mouse plasma, at −20 °C for 50 days, QC spiked 0.15 μg/mL, n=3
[8] = mouse plasma, at −20 °C for 50 days, QC spiked 40 μg/mL, n=3
[9] = mouse whole blood samples at room temperature for 2 h, QC spiked 0.15 μg/mL, n=3
[10] = mouse whole blood samples at room temperature for 2 h, QC spiked 40 μg/mL, n=3
[11] = post-preparation plasma samples at room temperature for 24 h, QC spiked 0.15 μg/mL, n=3
[12] = post-preparation plasma samples at room temperature for 24 h, QC spiked 40 μg/mL, n=3

RE (mouse plasma samples at room temperature for 6 h, QC levels not separated): −11.1%
Measured value [1]: 0.151 ± 0.002 µg/mL
RE [1]: 1.0%
Measured value [2]: 40.2 ± 0.33 µg/mL
RE [2]: 0.6%
Measured value [3]: 0.151 ± 0.004 µg/mL
RE [3]: 0.5%
Measured value [4]: 39.5 ± 0.26 µg/mL
RE [4]: −1.2%
Measured value [5]: 0.133 ± 0.002 µg/mL
RE [5]: −11.1%
Measured value [6]: 35.6 ± 0.17 µg/mL
RE [6]: −11.1%
Measured value [7]: 0.148 ± 0.004 µg/mL
RE [7]: −1.6%
Measured value [8]: 39.5 ± 0.11 µg/mL
RE [8]: −1.2%
Measured value [9]: 0.145 ± 0.002 µg/mL
RE [9]: −0.5%
Measured value [10]: 39.4 ± 0.22 µg/mL
RE [10]: −0.1%
Measured value [11]: 0.151 ± 0.003 µg/mL
RE [11]: 0.8%
Measured value [12]: 40.3 ± 0.09 µg/mL
RE [12]: 0.8%
SMILES: OCCn1cc(-c2ccc(N3CCC([C@H]4c5c(F)cccc5-c5cncn54)CC3)cc2)cn1 [SHR9146]
stability in bio-samples (various storage conditions, stable if deviation within ±15%): stable in all the tested bio-samples; also recorded: stable under various storage conditions
